# Patent US4435566A, “Thiopyranopyrimidine compounds and acid addition salts thereof” (Maruko Seiyaku Co., Ltd., priority 1982, dated 1984)
# “Also recorded” adds a separate entry of the source. Like-named read-outs stand apart in the source and are kept apart here.
# How the values were obtained:
# platelet aggregation = assay: Inhibition of platelet aggregation in platelet-rich plasma (aggregometer); assay type: cell-based, rabbits (male); settings: for IC50: Oryctolagus cuniculus, Platelet; for Percent Inhibition, Collagen: Collagen (5 × 10^-4 g/ml)
# Description: A blood sample drawn from a jugular vein of unanesthetized male rabbits (body weight: 2.2 to 2.6 kg) was mixed with a 3.8% aqueous sodium citrate solution in a proportion of 9:1 (by volume) and the mixture was centrifuged at 1,000 rpm for 10 minutes to obtain a platelet-rich plasma (about 5×10^5 platelets/mm^3, hereinafter "PRP"). To […] of PRP was added […] of an aqueous solution of the test compound and, after 2 hours, to the mixture was added either an adenosine diphosphate (ADP) solution (final concentration: 5×10^-6 M), a sodium arachidonate solution (final concentration: 5×10^-4 M) or collagen. The percent platelet aggregation was determined using an aggregometer and the inhibition of platelet aggregation by the test compound was calculated.
# Alloxan Diabetes Mice [1] = assay: Hypoglycemic activity (a): effect on alloxan diabetes mice, blood sugar 2 hours after oral administration; assay type: in vivo, mice (ddY male); settings: for % Change in Blood Sugar Level / Blood Sugar Level Mean ± S.E.: 2 hours after administration; for Blood Sugar Level Mean ± S.E.: alloxan 40 mg/kg i.v.
# Description: Alloxan was administered intravenously at a dose of 40 mg/kg from a tail vein to ddY male mice weighing 28.2 to 29.5 g. Seven days after administration, the test compound was administered orally to the mice and the blood sugar level was determined before and 2 hours after the administration of the test compound.
# Alloxan Diabetes Rats [2] = assay: Hypoglycemic activity (b)(1): effect on alloxan diabetes rats, blood sugar 2 hours after oral administration; assay type: in vivo, rats (Wister male); settings: for % Change in Blood Sugar Level / Blood Sugar Level Mean ± S.E.: 2 hours after administration; for Blood Sugar Level Mean ± S.E.: alloxan 30 mg/kg i.v.
# Description: (1) Alloxan was administered intravenously at a dose of 30 mg/kg from a tail vein to Wister male rats weighing 200 to 218 g. Three days after administration, the test compound was administered orally to the rats and the blood sugar level was determined before and 2 hours after administration of the test compound.
# Alloxan Diabetes Mice [3] = assay: Hypoglycemic activity (c): effect on alloxan diabetes mice, ED20; assay type: in vivo, mice (ddY male); settings: Mus musculus; oral; 3 hours after administration; alloxan 50 mg/kg i.v.
# Description: (§1) Alloxan was administered intravenously at a dose of 50 mg/kg from a tail vein to 5W ddY male mice weighing 23 to 27 g (10 […] per group). Seven days after administration, the test compound was administered orally to the mice and a blood sample was collected from the sacrificed mice after 3 hours. The blood sugar level of the sample was determined by the o-toluidine-boric acid method. The percent inhibition was calculated from the values in test group and the control, and a 20% inhibitory effective dose (ED20) was determined from a dose response curve.
# Normal Mice = assay: Hypoglycemic activity (d): effect on normal mice, ED20; assay type: in vivo, mice (ddY male); settings: Mus musculus; oral; 3 hours after administration
# Description: as §1
# The test compound was administered orally to 6W ddY male mice and, 3 hours after administration, a blood sample was drawn from the sacrificed mice. The blood sugar level of the sample was determined and ED20 values were calculated in the same manner as described in (c) above.
# [4] = Acute toxicity (Behrens-Karber method); settings: mouse, in vivo, mortality one week after administration
# Description: The test compound was administered orally (p.o.) or intravenously (i.v.) from a tail vein to ddY male mice weighing 24±2 g. The LD50 values were calculated by the Behrens-Karber method [Arch. exp. Path. Pharmak., 177, 379 (1935)] from the mortality one week after administration.
# [5] = biological target: T1, ileum of Hartley male guinea pig (histamine) (Cavia porcellus, UniProt P31389); assay: Anti-histamine activity on isolated ileum (Magnus tube, cumulative technique); settings: for Kb: Tyrode solution, 25±0.5° C., histamine added after 5 minutes, read-out: pA2 Value (converted)
# T1 construct: The ileum of Hartley male guinea pig (body weight: 350-400 g) was extracted and suspended in a Magnus tube; from tissue; host or cells: isolated ileum of Hartley male guinea pig
# T1 sequence (P31389 whole entry): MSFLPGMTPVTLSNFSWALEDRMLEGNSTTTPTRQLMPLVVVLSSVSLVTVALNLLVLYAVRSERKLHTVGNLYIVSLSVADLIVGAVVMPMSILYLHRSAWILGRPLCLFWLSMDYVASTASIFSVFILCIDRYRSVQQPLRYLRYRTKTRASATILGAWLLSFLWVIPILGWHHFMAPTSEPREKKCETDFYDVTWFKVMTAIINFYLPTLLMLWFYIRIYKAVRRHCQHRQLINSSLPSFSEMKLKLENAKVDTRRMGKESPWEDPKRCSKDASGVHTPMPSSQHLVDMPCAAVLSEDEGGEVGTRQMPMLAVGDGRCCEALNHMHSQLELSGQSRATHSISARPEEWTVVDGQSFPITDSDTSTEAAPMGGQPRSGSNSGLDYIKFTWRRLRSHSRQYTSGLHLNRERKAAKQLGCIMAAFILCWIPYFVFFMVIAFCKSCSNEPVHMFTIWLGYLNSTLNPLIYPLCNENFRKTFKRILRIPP
# Description: The ileum of Hartley male guinea pig (body weight: 350-400 g) was extracted and suspended in a Magnus tube containing 40 ml of Tyrode solution and the muscle movement was recorded on a soot paper via an isotonic Hebel. The solution in the Magnus tube was maintained at 25±0.5° C. during the test and test compound was previously added to the solution.
# Alloxan Diabetes Rats [6] = assay: Hypoglycemic activity (b)(2): effect on alloxan diabetes rats, time course of blood sugar (o-toluidine-boric acid method); assay type: in vivo, rats (Wister male); parameters: unit not given here; settings: 100 mg/kg, oral
# Description: (2) Alloxan was administered intravenously at a dose of 18 mg/kg to 9-10W Wister male rats weighing 240 to 280 g. Three days after administration, the test compound was administered orally to the rats (after fasting for 4 hours) and the blood sugar level was determined before and 1, 2 and 3 hours after administration of the test compound with respect to the blood samples drawn from the jugular vein by the o-toluidine-boric acid method.
# [7] = rabbit PRP, sodium arachidonate final concentration 5×10^-4 M, read-out: OC50, Arachidonic Acid
# [8] = rabbit PRP, ADP final concentration 5×10^-6 M, read-out: IC50, ADP
smiles,measurement,setting,value
"CC(=O)Oc1ccccc1C(=O)O [Acetylsalicylic Acid (Aspirin), Acetylsalicylic Acid, reference compound]",IC50,"platelet aggregation; read-out: IC50, ADP",2000 µM
same,IC50,"platelet aggregation; read-out: OC50, Arachidonic Acid",180 µM
"CCCCNC(=N)NC(=N)N [Buformin, 1-Butyl-biguanide, reference compound]",hypoglycemic activity (in words),Alloxan Diabetes Mice [1]; 150 mg/kg,weak hypoglycemic activity
same,% Change in Blood Sugar Level,Alloxan Diabetes Mice [1]; 150 mg/kg,-15.3%
same,Blood Sugar Level Mean ± S.E.,Alloxan Diabetes Mice [1]; 150 mg/kg,273.3 ± 28.7 mg/dL
same,hypoglycemic activity (in words),Alloxan Diabetes Rats [2]; 100 mg/kg,significant hypoglycemic activity
same,% Change in Blood Sugar Level,Alloxan Diabetes Rats [2]; 100 mg/kg,-22.9%
same,Blood Sugar Level Mean ± S.E.,Alloxan Diabetes Rats [2]; 100 mg/kg,275.5 ± 6.0 mg/dL
"CN1CCN(c2nc(N)c3c(n2)CCCS3)CC1 [Compound A, 4-amino-2-(N-methylpiperazino)-7,8-dihydro-6H-thiopyrano[3,2-d]pyrimidine]",ED20,Alloxan Diabetes Mice [3],60 mg/kg
same,ED20,Normal Mice,127 mg/kg
same,LD50 at 168 h,"[4]; po, read-out: LD50, p.o.",1450 mg/kg
"CNc1nc(N2CCNCC2)nc2c1SCCC2 [Compound B, 4-methylamino-2-piperazino-7,8-dihydro-6H-thiopyrano[3,2-d]pyrimidine]",ED20,Alloxan Diabetes Mice [3],53 mg/kg
same,ED20,Normal Mice,37 mg/kg
same,LD50 at 168 h,"[4]; po, read-out: LD50, p.o.",580 mg/kg
"Nc1nc2c(c(N3CCNCC3)n1)SCCC2.O=C(O)/C=C\C(=O)O.O=C(O)/C=C\C(=O)O [Compound C, 2-amino-4-piperazino-7,8-dihydro-6H-thiopyrano[3,2-d]pyrimidine dimaleate]",ED20,Alloxan Diabetes Mice [3],47 mg/kg
same,ED20,Normal Mice,230 mg/kg
same,LD50 at 168 h,"[4]; po, read-out: LD50, p.o.",1400 mg/kg
"Nc1nc(N2CCNCC2)nc2c1SCCC2 [Compound D, 4-Amino-2-piperazino-7,8-dihydro-6H--thiopyrano[3,2-d]pyrimidine Dimaleate]",ED20,Alloxan Diabetes Mice [3],52 mg/kg
same,ED20,Normal Mice,11 mg/kg
same,LD50 at 168 h,"[4]; po, read-out: LD50, p.o.",820 mg/kg
"C1CSc2c(nc(N3CCNCC3)nc2N2CCCC2)C1.O=C(O)/C=C\C(=O)O [Compound E, 2-piperazino-4-pyrrolidino-7,8-dihydro-6H-thiopyrano[3,2-d]pyrimidine maleate]",hypoglycemic activity (in words),Alloxan Diabetes Mice [1]; 200 mg/kg,significant hypoglycemic activity
same,% Change in Blood Sugar Level,Alloxan Diabetes Mice [1]; 200 mg/kg,-36.3%
same,Blood Sugar Level Mean ± S.E.,Alloxan Diabetes Mice [1]; 200 mg/kg,205.5 ± 29.3 mg/dL
same,anti-histamine activity compared with Diphenhydramine (in words),[5],substantially equal to that of Diphenhydramine
same,Kb,[5],0.0427 µM
same,LD50 at 168 h,"[4]; iv, read-out: LD50, i.v.",125 mg/kg
same,LD50 at 168 h,"[4]; po, read-out: LD50, p.o.",1170 mg/kg
"CN1CCN(c2nc3c(c(N4CCCC4)n2)SCCC3)CC1.O=C(O)/C=C\C(=O)O [Compound F, 2-(N-methylpiperazino)-4-pyrrolidino-7,8-dihydro-6H-thiopyrano[3,2-d]pyrimidine maleate]",IC50,platelet aggregation; [7],30 µM
same,"Percent Inhibition, Collagen",platelet aggregation; rabbit PRP,73%
same,anti-histamine activity compared with Diphenhydramine (in words),[5],substantially equal to that of Diphenhydramine
same,Kb,[5],0.0204 µM
same,LD50 at 168 h,"[4]; iv, read-out: LD50, i.v.",100 mg/kg
same,LD50 at 168 h,"[4]; po, read-out: LD50, p.o.",1250 mg/kg
"C1CSc2c(nc(N3CCNCC3)nc2N2CCOCC2)C1.O=C(O)/C=C\C(=O)O [Compound G, 4-morpholino-2-piperazino-7,8-dihydro-6H-thiopyrano[3,2-d]pyrimidine maleate]",hypoglycemic activity (in words),Alloxan Diabetes Mice [1]; 200 mg/kg,significant hypoglycemic activity
same,% Change in Blood Sugar Level,Alloxan Diabetes Mice [1]; 200 mg/kg,-39.5%
same,Blood Sugar Level Mean ± S.E.,Alloxan Diabetes Mice [1]; 200 mg/kg,195.2 ± 39.7 mg/dL
same,% Change in Blood Sugar Level,Alloxan Diabetes Rats [2]; 100 mg/kg,-30.2%
same,Blood Sugar Level Mean ± S.E.,Alloxan Diabetes Rats [2]; 100 mg/kg,286.3 ± 76 mg/dL
same,hypoglycemic activity (in words),"Alloxan Diabetes Rats [2]; 100 mg/kg, maleate",significant hypoglycemic activity; also recorded: strongest activity
same,"Blood Sugar Level Mean ± S.E., After 1 Hr.","Alloxan Diabetes Rats [6]; 1 hour after administration, fasted 4 hours",141.3 ± 10.4
same,"Blood Sugar Level Mean ± S.E., After 2 Hrs.","Alloxan Diabetes Rats [6]; 2 hours after administration, fasted 4 hours",130.6 ± 12.6
same,"Blood Sugar Level Mean ± S.E., After 3 Hrs.","Alloxan Diabetes Rats [6]; 3 hours after administration, fasted 4 hours",130.3 ± 10.3
same,"Blood Sugar Level Mean ± S.E., Before",Alloxan Diabetes Rats [6]; before administration (baseline),189.5 ± 9.4
same,IC50,platelet aggregation; [8],150 µM
same,IC50,platelet aggregation; [7],750 µM
same,"Percent Inhibition, Collagen",platelet aggregation; rabbit PRP,95%
same,LD50 at 168 h,"[4]; iv, read-out: LD50, i.v.",135 mg/kg
same,LD50 at 168 h,"[4]; po, read-out: LD50, p.o.",960 mg/kg
"CN1CCN(c2nc3c(c(N4CCOCC4)n2)SCCC3)CC1 [Compound H, 2-(N-methylpiperazino)-4-morpholino-7,8-dihydro-6H-thiopyrano[3,2-d]pyrimidine]",IC50,platelet aggregation; [8],1000 µM
same,IC50,platelet aggregation; [7],8.4 µM
same,"Percent Inhibition, Collagen",platelet aggregation; rabbit PRP,65%
same,LD50 at 168 h,"[4]; iv, read-out: LD50, i.v.",200 mg/kg
same,LD50 at 168 h,"[4]; po, read-out: LD50, p.o.",1580 mg/kg
"CCCCNC(=O)NS(=O)(=O)c1ccc(C)cc1 [Tolbutamide, 1-Butyl-3-(p-tolylsulfonyl)-urea, reference compound]",hypoglycemic activity (in words),Alloxan Diabetes Mice [1]; 500 mg/kg,weak hypoglycemic activity
same,% Change in Blood Sugar Level,Alloxan Diabetes Mice [1]; 500 mg/kg,-13.7%
same,Blood Sugar Level Mean ± S.E.,Alloxan Diabetes Mice [1]; 500 mg/kg,278.4 ± 25.7 mg/dL
same,hypoglycemic activity (in words),Alloxan Diabetes Rats [2]; 300 mg/kg,significant hypoglycemic activity
same,% Change in Blood Sugar Level,Alloxan Diabetes Rats [2]; 300 mg/kg,-18.6%
same,Blood Sugar Level Mean ± S.E.,Alloxan Diabetes Rats [2]; 300 mg/kg,285.2 ± 2.8 mg/dL
